# According to publication PMC12751141, “Disrupting α-Synuclein–ClpP interaction restores mitochondrial function and attenuates neuropathology in Parkinson’s disease models” (Molecular Neurodegeneration, 2025):
# Legend:
# [1] = target: FITC-αSyn (human) (UniProt P37840); experiment: MST
# [2] = target: human recombinant αSyn pre-formed fibrils (PFF) (Type 1) (human); experiment: MST
# [3] = test system: αSyn–ClpP binding; experiment: Immunoprecipitation of recombinant ClpP and αSyn in vitro; set-up: species or system human; conditions: recombinant ClpP pre-incubated with peptide 30 min before αSyn; anti-ClpP IP; 3 independent experiments
# Method: The human recombinant WT- (#S-1001-2), A53T- (#S-1001-2), ΔNAC- (#S-1015-1) and ΔC- (#S-1012-1) αSyn and FITC-αSyn (S-1113-2) were purchased from rPeptide. The human recombinant αSyn pre-formed fibrils (PFF) (Type 1) (SPR-322) and ATTO-594-PFF (SPR-322B-A594) were purchased from StressMarq Biosciences (Bioactivity has been widely validated via various approaches, e.g. TEM, ThT).
# (§1) Cells or tissues were lysed in total lysis buffer (50mM Tris-HCl, pH 7.5, 150mM NaCl, 1% Triton X-100, and protease inhibitor). Total protein lysates (800 µg) were incubated with the indicated antibodies overnight at 4 °C followed by the addition of protein A/G beads (sc-2003, Santa Cruz) for 2 h at 4 °C. Various recombinant αSyn and Clpp (500 ng) were incubated in in vitro interaction buffer (20mM Tris-HCl pH 7.5, 100mM KCl, 2mM MgCl2 and 0.1% Triton-X100) for 30 min at room temperature, and then incubated with indicated antibodies overnight at 4 °C followed by the addition of protein A/G beads for 2 h at 4 °C. The beads with immuno-precipitates were pulled down at 4000 g and washed four times with total lysis buffer/in vitro interaction buffer in the presence of 0.1% Triton X-100 and were analyzed by western blot analysis.
# [4] = test system: ClpP–αSyn interaction; experiment: Co-immunoprecipitation of ClpP with αSyn constructs in HEK293T cell lysates; type: cell-based
# Method: Myc-tagged WT- and A53T- αSyn, Myc-tagged ClpP, and Flag-tagged WT- and S153A- ClpP plasmids were self-constructed as previously described (Ref). To construct truncated-αSyn plasmids, pcDNA3.1(-) was digested with BsteII and XbaI, and ΔN-, ΔC- and ΔNAC-αSyn was PCR-amplified using self-designed primers and inserted into the plasmid backbone. Cells were transfected with TransIT-2020 (Mirus Bio, LLC) following the manufacturer’s protocol.
# as §1
# Shown are representative blots of 3 independent experiments. Quantification of the ratio of αSyn over ClpP (pull-down) (n = 4, two-tailed Student’s t test, data are mean ± SEM).
# [5] = test system: ClpP (HEK293T cells); experiment: ClpP protein level, western blot, HEK293T cells; type: cell-based; conditions: WT or A53T αSyn overexpression; 30 min pretreatment; n = 4–5 (CS1: n = 4)
# [6] = test system: ClpP (SH-SY5Y cells); experiment: ClpP protein level, western blot, SH-SY5Y cells; type: cell-based; conditions: WT or A53T αSyn overexpression; 30 min pretreatment; n = 4–5 (CS1: n = 4)
# [7] = test system: αSyn oligomerization (VN/VC-αSyn), SH-SY5Y cells; experiment: BiFC split-Venus αSyn oligomerization in SH-SY5Y cells; type: cell-based
# Description: To construct truncated-αSyn plasmids, pcDNA3.1(-) was digested with BsteII and XbaI, and ΔN-, ΔC- and ΔNAC-αSyn was PCR-amplified using self-designed primers and inserted into the plasmid backbone. Cells were transfected with TransIT-2020 (Mirus Bio, LLC) following the manufacturer’s protocol.
# (§2) The bimolecular fluorescence was examined 24-hour after transfection (n = 3, one-way ANOVA with Tukey’s post-hoc test, scale bar = 30 μm). (D) Quantification of the concentration (ng/ml) of extracellular αSyn monomer and oligomer, and intracellular αSyn oligomer in Tet-inducible SH-SY5Y cells that were pre-treated with TAT or CS2 peptide 30-minute before adding doxycycline (Dox) to induce αSyn expression. The concentration of αSyn species was determined by ELISA (n = 4, one-way ANOVA with Tukey’s post-hoc test; data are mean ± SEM). (E) Representative images of Mito-SOX staining in SH-SY5Y cells that were pre-treated with TAT or CS2 peptide and transfected with split Venus-αSyn vectors. Mitochondrial ROS production was determined by Mito-SOX staining after 24-hour transfection (n = 4, two-tailed Student’s t test, scale bar = 30 μm).
# The bimolecular fluorescence was examined 24-hour after the transfection and quantitated (n = 14 areas/group, one-way ANOVA with Tukey’s post-hoc test, data are mean ± SEM).
# [8] = test system: SH-SY5Y cells; experiment: Mitochondrial ROS (Mito-SOX) in SH-SY5Y cells; type: cell-based; conditions: SH-SY5Y expressing VN/VC-αSyn (CS1: WT αSyn); Mito-SOX 5 µM; vs TAT
# Method: Cells cultured on coverslips or 24-well plates were washed with DPBS and then incubated with 5 µM Mito-SOX™ Red (Invitrogen, M36008), a mitochondrial superoxide indicator, for 10 min at 37 °C. For cells cultured on coverslips, the images were visualized by microscope, and quantification of images was then carried out using NIH ImageJ software. At least 100 cells per group were counted in the analysis.
# as §2
# [9] = test system: αSyn PFF-seeded aggregation; experiment: αSyn ThT assay, PFF-seeded aggregation with recombinant ClpP; type: biochemical, human; conditions: ClpP 5/10 µM; αSyn PFF 1 µM; ThT 1 µM; PBS pH 7.4, 37 °C, 500 rpm, up to 48 h; ex 450 nm / em 485 nm; n = 4
# Method: αSyn monomer (5µM) and PFF (1µM) were incubated with recombinant ClpP (5/10µM) and Thioflavin T (ThT) (1µM) in 100 µl PBS (pH 7.4) at 37 °C in a shaking incubator (500 rpm). ThT fluorescence was measured (excitation 450 nm, emission 485 nm) every 15 min up to 48 h.
# Fig. 1 ClpP modulates αSyn tetramer and aggregates. […] (B) Western blot and quantification of αSyn tetramer/monomer ratio and oligomer/monomer ratio, upon intact cell DSG-crosslinking, in HEK293T cells overexpressing Myc-tagged WT αSyn with EV or Flag-tagged S153A-ClpP (n = 4–5, two-tailed Student’s t test). (C) Fluorescent images and quantification of αSyn aggregation in SH-SY5Y cells overexpressing EV or ClpP with vectors expressing Venus-N-αSyn (VN) and αSyn-C-Venus (VC) (n = 7, two-tailed Student’s t test, Scale bar = 10 μm). (D) Fluorescent images and quantification of αSyn aggregation in control knock-down (Consh) or ClpP knock-down (ClpPsh) SH-SY5Y cells overexpressing VN and VC (n = 4, two-tailed Student’s t test, Scale bar = 10 μm). (E) In vitro αSyn PFF (1µM) – seeded aggregation in the absence (control) or presence of ClpP (5/10µM) was monitored by thioflavin T (ThT) fluorescence (n = 4, two-tailed Student’s t test). […]
substance,measurement,setting,value
Decoy peptide CS2 (TAT-C6-GGVVTA) (from UniProt P04608 47-57),Kd,[1],7 µM
same,Kd,[2],4 µM
"TAT-C6-GAVVTG [CS1, decoy peptide]","αSyn–ClpP binding, recombinant",[3],no effect
same,ClpP binding to ΔC-αSyn,"[4]; HEK293T lysates, Flag-ClpP + Myc-ΔC-αSyn","not CS1, abolished the binding"
same,ClpP binding to ΔN-αSyn,"[4]; HEK293T lysates, Flag-ClpP + Myc-ΔN-αSyn","not CS1, abolished the binding"
same,ClpP binding to WT-αSyn,"[4]; HEK293T lysates, WT αSyn, CS2: 24-hour treatment","not CS1, abolished the binding"
same,"αSyn-ClpP interaction, discussion summary",[4]; in vitro or in vivo,"no effect, either in vitro or in vivo"
same,"ClpP protein level, HEK293T",[5],failed to restore ClpP expression
same,"ClpP protein level, SH-SY5Y",[6],failed to restore ClpP expression
same,BiFC signal / αSyn oligomerization,"[7]; SH-SY5Y expressing VN/VC-αSyn, 24-hour after transfection","failed to restore ClpP expression (Fig. S4A and B), reduce αSyn oligomerization"
same,"αSyn aggregation, discussion summary",[7]; in vitro or in vivo,"no effect, either in vitro or in vivo"
same,mitochondrial ROS (Mito-SOX intensity),[8],"failed to restore ClpP expression (Fig. S4A and B), reduce αSyn oligomerization (Fig. S4C), or suppress ROS"
recombinant ClpP protein: human recombinant ClpP obtained from Dr. Aaron Schimmer,PFF-ThT fluorescence,[9],dose-dependent suppression of PFF-ThT fluorescence intensity
